Our source for the IC50 values is patent EP4786454A1, “HETEROARYL DERIVATIVE AND USE THEREOF” (priority 2023, dated 2025).

Assay in all cases: Drug-drug interaction, CYP inhibition in human liver microsomes, cocktail method
Common to all, as to type: in vitro ADME

One series has as its target T1, CYP1A2 (Homo sapiens, UniProt P05177).
T1 construct: from tissue; host or cells: human liver microsomes
T1 sequence (P05177 1-516): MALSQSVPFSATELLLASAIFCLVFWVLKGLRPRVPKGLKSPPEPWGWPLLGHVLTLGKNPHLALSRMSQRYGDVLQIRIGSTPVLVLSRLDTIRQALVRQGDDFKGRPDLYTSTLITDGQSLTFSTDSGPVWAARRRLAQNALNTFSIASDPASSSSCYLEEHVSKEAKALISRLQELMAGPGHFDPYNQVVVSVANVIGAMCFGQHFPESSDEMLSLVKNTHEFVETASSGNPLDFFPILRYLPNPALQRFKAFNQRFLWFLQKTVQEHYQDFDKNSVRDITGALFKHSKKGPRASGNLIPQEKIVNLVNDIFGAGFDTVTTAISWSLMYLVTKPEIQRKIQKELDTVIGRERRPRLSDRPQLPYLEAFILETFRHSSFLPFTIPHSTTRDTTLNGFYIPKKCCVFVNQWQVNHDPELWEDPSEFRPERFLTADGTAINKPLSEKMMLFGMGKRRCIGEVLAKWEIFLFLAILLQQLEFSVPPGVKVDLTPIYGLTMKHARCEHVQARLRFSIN
The procedure: (§1) The inhibitory effects of compounds on the activity of human liver microsomal cytochrome P450 isoenzymes (CYP1A2, CYP2C9, CYP2C19, CYP2D6, and CYP3A) were evaluated using a cocktail method with specific probe substrates for CYP1A2, CYP2C9, CYP2C19, CYP2D6, and CYP3A.
(§2) Human liver microsomes, probe substrates, positive control inhibitor, and reduced nicotinamide adenine dinucleotide phosphate.
(§3) 20 µL of a substrate solution was added to the corresponding well of a reaction plate, and 20 µL of potassium phosphate buffer was added to the blank wells.
(§4) 2 µL of a test compound working solution and positive control working solution were added to the corresponding wells, and 2 µL of solvent was added to the inhibitor-free wells and blank wells.
(§5) Human liver microsomal working solution was prepared, and 158 µL of human liver microsomal working solution was added to each well of the reaction plate.
(§6) The reaction plate was preheated at 37.0 °C for 10 minutes.
(§7) 20 µL of NADPH cofactor working solution was added to the reaction plate to initiate the reaction.
(§8) The mixture was mixed and incubated in a 37.0 °C water bath for 10 minutes, and 400 µL of stop solution was added to the reaction plate to terminate the reaction.
(§9) The sample plate was placed in a centrifuge, and centrifuged at 4000 rpm for 20 minutes.
(§10) 200 µL of supernatant was taken out, and appropriate 100 µL of pure water was added for dilution. The plate was shaken until the mixture was mixed well.
(§11) The analysis was performed using liquid chromatography-tandem mass spectrometry (LC-MS/MS).
(§12) The IC50 values of the assay samples were calculated by performing a three-parameter or four-parameter nonlinear regression analysis using XL fit software, with the remaining percentage of activity as the ordinate and the assay sample concentration as the abscissa. When the IC50 obtained by fitting with XL fit software was greater than the maximum administration concentration (50.0 µM) or IC50 could not be obtained by fitting, the IC50 value was marked as ">50.0 µM".
(§13) Three-parameter equation: y = (max)/(1 + (((x)/(IC50)))^−hillslope) [formula]
(§14) Four-parameter equation: y = min + (max−min)/(1 + (((x)/(IC50)))^−hillslope) [formula] max: maximum enzyme activity; min: minimum enzyme activity; x: concentration of the assay sample or positive control inhibitor; y: enzyme activity at the corresponding concentration; hillslope: slope; IC50: half-maximal inhibitory concentration; the four-parameter equation was used when the minimum enzyme activity was within ±10%, otherwise the three-parameter equation was used. Drug-drug interaction assay results of the compounds of the present disclosure

The target of the next series is T2, CYP2C19 (Homo sapiens, UniProt P33261).
T2 construct: from tissue; host or cells: human liver microsomes
The procedure:
as §1, §2, §3, §4, §5, §6, §7, §8, §9, §10, §11, §12, §13, §14

For another series, the target named is T3, CYP2C9 (Homo sapiens, UniProt P11712).
T3 construct: from tissue; host or cells: human liver microsomes
The procedure:
as §1, §2, §3, §4, §5, §6, §7, §8, §9, §10, §11, §12, §13, §14

Another series deals with T4, CYP2D6 (Homo sapiens, UniProt P10635).
T4 construct: from tissue; host or cells: human liver microsomes
The procedure:
as §1, §2, §3, §4, §5, §6, §7, §8, §9, §10, §11, §12, §13, §14

For a further series, the target named is CYP3A4 (Homo sapiens, UniProt P08684). The procedure: as §1, §2, §3, §4, §5, §6, §7, §8, §9, §10, §11, §12, §13, §14
The mark [1] stands for this setting: human liver microsomes, maximum concentration 50.0 µM, read-out: CYP 1A2 (IC50).
[2] abbreviates: human liver microsomes, maximum concentration 50.0 µM, read-out: CYP 2C19 (IC50).
[3] abbreviates: human liver microsomes, maximum concentration 50.0 µM, read-out: CYP 2C9 (IC50).
Where [4] appears, read: human liver microsomes, maximum concentration 50.0 µM, read-out: CYP 2D6 (IC50).
Where [5] appears, read: human liver microsomes, maximum concentration 50.0 µM, read-out: CYP 3A4 (IC50).

Read-outs that look alike come from different tables or passages of the source.

T2 sequence (P33261 whole entry): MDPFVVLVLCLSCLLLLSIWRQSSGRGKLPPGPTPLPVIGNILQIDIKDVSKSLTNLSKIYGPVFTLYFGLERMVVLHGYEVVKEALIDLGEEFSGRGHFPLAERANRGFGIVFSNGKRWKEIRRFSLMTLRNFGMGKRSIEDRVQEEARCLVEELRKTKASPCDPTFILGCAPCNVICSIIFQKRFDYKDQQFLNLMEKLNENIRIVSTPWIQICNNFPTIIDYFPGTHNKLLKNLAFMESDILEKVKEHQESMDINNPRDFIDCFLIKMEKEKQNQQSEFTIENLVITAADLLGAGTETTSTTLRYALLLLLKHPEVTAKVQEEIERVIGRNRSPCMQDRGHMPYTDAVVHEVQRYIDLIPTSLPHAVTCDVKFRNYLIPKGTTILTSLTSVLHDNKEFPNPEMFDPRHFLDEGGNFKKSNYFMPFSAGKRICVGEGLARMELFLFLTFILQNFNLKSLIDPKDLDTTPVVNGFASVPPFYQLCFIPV
T3 sequence (P11712 whole entry): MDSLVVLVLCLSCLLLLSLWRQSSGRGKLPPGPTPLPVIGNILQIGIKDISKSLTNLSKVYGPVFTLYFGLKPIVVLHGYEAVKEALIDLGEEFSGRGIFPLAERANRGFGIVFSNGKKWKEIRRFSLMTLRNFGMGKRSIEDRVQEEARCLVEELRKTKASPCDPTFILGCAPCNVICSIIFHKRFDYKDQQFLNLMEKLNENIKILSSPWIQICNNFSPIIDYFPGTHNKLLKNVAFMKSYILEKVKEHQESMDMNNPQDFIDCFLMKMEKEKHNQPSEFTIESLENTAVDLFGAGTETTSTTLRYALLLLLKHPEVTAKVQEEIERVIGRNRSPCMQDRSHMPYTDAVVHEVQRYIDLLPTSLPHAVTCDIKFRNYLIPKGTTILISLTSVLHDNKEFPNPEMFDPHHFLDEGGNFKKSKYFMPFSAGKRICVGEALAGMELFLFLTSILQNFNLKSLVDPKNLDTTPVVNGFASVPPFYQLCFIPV
Chain of CYP3A4 (P08684 2-503): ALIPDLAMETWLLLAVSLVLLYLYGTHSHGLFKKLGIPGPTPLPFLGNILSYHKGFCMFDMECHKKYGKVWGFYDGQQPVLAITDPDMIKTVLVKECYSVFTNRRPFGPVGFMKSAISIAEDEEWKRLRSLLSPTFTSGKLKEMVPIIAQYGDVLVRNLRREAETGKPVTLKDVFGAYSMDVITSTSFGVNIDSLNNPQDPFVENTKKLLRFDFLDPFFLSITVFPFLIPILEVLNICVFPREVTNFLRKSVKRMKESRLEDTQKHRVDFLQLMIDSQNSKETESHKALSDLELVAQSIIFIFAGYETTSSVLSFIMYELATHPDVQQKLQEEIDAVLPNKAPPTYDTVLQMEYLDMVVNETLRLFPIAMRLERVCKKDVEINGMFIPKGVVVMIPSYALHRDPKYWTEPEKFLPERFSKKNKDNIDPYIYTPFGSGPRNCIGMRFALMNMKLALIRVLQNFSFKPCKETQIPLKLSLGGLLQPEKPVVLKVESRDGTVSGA
T4 sequence (P10635 whole entry): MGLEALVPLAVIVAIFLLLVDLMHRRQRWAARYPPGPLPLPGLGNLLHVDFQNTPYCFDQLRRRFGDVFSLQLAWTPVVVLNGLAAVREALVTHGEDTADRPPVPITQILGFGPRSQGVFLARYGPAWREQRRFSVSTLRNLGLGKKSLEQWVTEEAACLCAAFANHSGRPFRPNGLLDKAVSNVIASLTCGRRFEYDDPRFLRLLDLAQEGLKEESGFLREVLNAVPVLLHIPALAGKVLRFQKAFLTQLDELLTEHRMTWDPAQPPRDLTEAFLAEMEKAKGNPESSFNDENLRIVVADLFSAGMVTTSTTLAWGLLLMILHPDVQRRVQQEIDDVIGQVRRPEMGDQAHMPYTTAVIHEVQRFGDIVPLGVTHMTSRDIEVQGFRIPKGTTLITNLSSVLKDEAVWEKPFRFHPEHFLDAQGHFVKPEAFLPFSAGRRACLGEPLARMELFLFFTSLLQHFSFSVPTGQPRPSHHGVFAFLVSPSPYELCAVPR

With `CC(C)(C)CC(=O)Nc1nc2c(F)cc(C#N)cn2c1C12CC(C1)C2` [Compound 5], the IC50 on CYP1A2 (setting [1]), at CYP2C19 (setting [2]), at CYP2C9 (setting [3]) and on CYP2D6 (setting [4]) was > 50 µM each time. Further, on CYP3A4 (setting [5]), the IC50 at 10 min is > 50 µM.
Turning to `CC(C)(C)CC(=O)Nc1nc2c(F)cc(C#N)cn2c1C1=CCCC1` [Compound 3], the IC50 on CYP1A2 (setting [1]), at CYP2C19 (setting [2]), at CYP2C9 (setting [3]) and on CYP2D6 (setting [4]) was > 50 µM in each case. In addition, the IC50 at 10 min on CYP3A4 (setting [5]) is > 50 µM.
Regarding `CC(C)(C)CC(=O)Nc1nc2c(F)cc(C#N)cn2c1-c1ccc(OC(F)(F)F)cc1` [Compound 1], the IC50 was > 50 µM on CYP1A2, 31 µM at CYP2C19, 46 µM on CYP2C9 and 42 µM against CYP2D6. Moreover, the IC50 at 10 min at CYP3A4 (human, microsomes) was determined as 14 µM.
For `CC(C)(C)CC(=O)Nc1nc2c(C(F)(F)F)cc(C#N)cn2c1C12CC(C1)C2` [Compound 6], the IC50 on CYP1A2 (setting [1]), on CYP2C19 (setting [2]), on CYP2C9 (setting [3]) and at CYP2D6 (setting [4]) was > 50 µM in each case. The 50% inhibitory concentration (IC50) at 10 min at CYP3A4 (setting [5]) is > 50 µM.
